Results: patent US11807644B2 (PMV Pharmaceuticals, Inc., priority 2020, dated 2023)

These compounds were tested against T1, recombinant His-tag Y220C p53 DBD protein (Homo sapiens, UniProt P04637, Y220C) (assay: In vitro DNA binding activity assay (TR-FRET): binding of His-tag Y220C p53 DBD to biotin-labeled consensus DNA). Conditions: SC150 = concentration to increase DNA binding by […], His-tag Y220C p53 DBD, biotin-labeled consensus DNA.
T1 construct: recombinant His-tag Y220C p53 DBD protein (amino acids #˜94-312)
Type: biochemical
In the case of `CN1CC[C@H](Nc2cccc3c2cc(-c2nnc(CNC(=O)C4CCCC4)s2)n3CC(F)(F)F)[C@H](F)C1` (racemic) [Compound 29B, (+/−)-N-{[5-(4-{[(3R,4S)-3-fluoro-1-methylpiperidin-4-yl]amino}-1-(2,2,2-trifluoroethyl)-1H-indol-2-yl)-1,3,4-thiadiazol-2-yl]methyl}cyclopentanecarboxamide], the “Y220C SC150 (μM)” value is reported as “** (** = 0.1 μM ≤ SC150 < 0.5 μM)”.
In the case of `COCCn1cnc(C(=O)NCc2nc(-c3cc4c(N[C@@H]5CCN(C)C[C@@H]5F)cccc4n3CC(F)(F)F)no2)c1` [Compound 297B, N-{[3-(4-{[(3S,4R)-3-fluoro-1-methylpiperidin-4-yl]amino}-1-(2,2,2-trifluoroethyl)-1H-indol-2-yl)-1,2,4-oxadiazol-5-yl]methyl}-1-(2-methoxyethyl)-1H-imidazole-4-carboxamide], the “Y220C SC150 (μM)” value is reported as “* (* = 0 μM ≤ SC150 < 0.1 μM)”.
`CN1CC[C@@H](Nc2cccc3c2cc(-c2noc(CNC(=O)c4ccccc4)n2)n3CC(F)(F)F)[C@@H](F)C1` (racemic) [Compound 172B, (+/−)-N-{[3-(4-{[(3R,4S)-3-fluoro-1-methylpiperidin-4-yl]amino}-1-(2,2,2-trifluoroethyl)-1H-indol-2-yl)-1,2,4-oxadiazol-5-yl]methyl}benzamide] was tested, and the “Y220C SC150 (μM)” value was “* (* = 0 μM ≤ SC150 < 0.1 μM)”.
For `CN1CC[C@@H](Nc2cccc3c2cc(-c2noc(CNC(=O)c4cnn(Cc5ccccc5)c4)n2)n3CC(F)(F)F)[C@@H](F)C1` [Compound 300B, 1-benzyl-N-{[3-(4-{[(3S,4R)-3-fluoro-1-methylpiperidin-4-yl]amino}-1-(2,2,2-trifluoroethyl)-1H-indol-2-yl)-1,2,4-oxadiazol-5-yl]methyl}-1H-pyrazole-4-carboxamide], the “Y220C SC150 (μM)” value was “* (* = 0 μM ≤ SC150 < 0.1 μM)”.
`CN1CC[C@@H](Nc2cccc3c2cc(-c2noc(CNC(=O)c4ccn(C)c4)n2)n3CC(F)(F)F)[C@@H](F)C1` [Compound 181B, N-{[3-(4-{[(3S,4R)-3-fluoro-1-methylpiperidin-4-yl]amino}-1-(2,2,2-trifluoroehyl)-1H-indol-2-yl)-1,2,4-oxadiazol-5-yl]methyl}-1-methyl-1H-pyrrole-3-carboxamide] was tested, and the “Y220C SC150 (μM)” value was “* (* = 0 μM ≤ SC150 < 0.1 μM)”.
With `CC(C)N1CC[C@@H](Nc2cccc3c2cc(-c2noc(CNC(=O)c4ccn(C(C)(C)C)c4)n2)n3CC(F)(F)F)[C@@H](F)C1` [Compound 317B, 1-tert-butyl-N-{[3-(4-{[(3S,4R)-3-fluoro-1-(propan-2-yl)piperidin-4-yl]amino}-1-(2,2,2-trifluoroethyl)-1H-indol-2-yl)-1,2,4-oxadiazol-5-yl]methyl}-1H-pyrrole-3-carboxamide] the “Y220C SC150 (μM)” value was “* (* = 0 μM ≤ SC150 < 0.1 μM)”.
With `CC(C)(C)N1CCC(Nc2cccc3c2cc(-c2noc(CNC(=O)c4cnn(C(C)(C)C)c4)n2)n3CC(F)(F)F)[C@@H](F)C1` (stereo in doubt) [Compound 400B, 1-tert-butyl-N-{[3-(4-{[(3S,4R)-1-tert-butyl-3-fluoropiperidin-4-yl]amino}-1-(2,2,2-trifluoroethyl)-1H-indol-2-yl)-1,2,4-oxadiazol-5-yl]methyl}-1H-pyrazole-4-carboxamide] the “Y220C SC150 (μM)” value was “* (* = 0 μM ≤ SC150 < 0.1 μM)”.
With `CN1CC[C@@H](Nc2cccc3c2cc(-c2noc(CNC(=O)c4csc(N(C)C(C)(C)C)n4)n2)n3CC(F)(F)F)[C@@H](F)C1` [Compound 528B, 2-[tert-butyl(methyl)amino]-N-{[3-(4-{[(3S,4R)-3-fluoro-1-methylpiperidin-4-yl]amino}-1-(2,2,2-trifluoroethyl)-1H-indol-2-yl)-1,2,4-oxadiazol-5-yl]methyl}-1,3-thiazole-4-carboxamide] the “Y220C SC150 (μM)” value was “* (* = 0 μM ≤ SC150 < 0.1 μM)”.
With `CC(C)(C)n1ccc(C(=O)NCc2nc(-c3cc4c(N[C@@H]5CCN(C6CC6)C[C@@H]5F)cccc4n3CC(F)(F)F)no2)c1` [Compound 330B, 1-tert-butyl-N-{[3-(4-{[(3S,4R)-1-cyclopropyl-3-fluoropiperidin-4-yl]amino}-1-(2,2,2-trifluoroethyl)-1H-indol-2-yl)-1,2,4-oxadiazol-5-yl]methyl}-1H-pyrrole-3-carboxamide] the “Y220C SC150 (μM)” value was “* (* = 0 μM ≤ SC150 < 0.1 μM)”.
For `CC(C)(C)n1ccc(C(=O)NCc2nc(-c3cc4c(N[C@@H]5CCOC[C@H]5F)cccc4n3CC(F)(F)F)no2)c1` [Compound 512B, 1-tert-butyl-N-{[3-(4-{[(3S,4R)-3-fluorooxan-4-yl]amino}-1-(2,2,2-trifluoroethyl)-1H-indol-2-yl)-1,2,4-oxadiazol-5-yl]methyl}-1H-pyrrole-3-carboxamide], the “Y220C SC150 (μM)” value was “* (* = 0 μM ≤ SC150 < 0.1 μM)”.
In the case of `CC(C)c1ccc(C(=O)NCc2nc(-c3cc4c(N[C@@H]5CCN(C)C[C@@H]5F)cccc4n3CC(F)(F)F)no2)s1` [Compound 444B, N-{[3-(4-{[(3S,4R)-3-fluoro-1-methylpiperidin-4-yl]amino}-1-(2,2,2-trifluoroethyl)-1H-indol-2-yl)-1,2,4-oxadiazol-5-yl]methyl}-5-(propan-2-yl)thiophene-2-carboxamide], the “Y220C SC150 (μM)” value is reported as “* (* = 0 μM ≤ SC150 < 0.1 μM)”.
For `COC(C)(C)c1nc(C(=O)NCc2nc(-c3cc4c(N[C@@H]5CCN(C)C[C@@H]5F)cccc4n3CC(F)(F)F)no2)cs1` [Compound 530B, N-{[3-(4-{[(3S,4R)-3-fluoro-1-methylpiperidin-4-yl]amino}-1-(2,2,2-trifluoroethyl)-1H-indol-2-yl)-1,2,4-oxadiazol-5-yl]methyl}-2-(2-methoxypropan-2-yl)-1,3-thiazole-4-carboxamide], the “Y220C SC150 (μM)” value was “* (* = 0 μM ≤ SC150 < 0.1 μM)”.
For `CN1CC[C@@H](Nc2cccc3c2cc(-c2noc(CNC(=O)c4csc(N5CC6(COC6)C5)n4)n2)n3CC(F)(F)F)[C@@H](F)C1` [Compound 527B, N-{[3-(4-{[(3S,4R)-3-fluoro-1-methylpiperidin-4-yl]amino}-1-(2,2,2-trifluoroethyl)-1H-indol-2-yl)-1,2,4-oxadiazol-5-yl]methyl}-2-{2-oxa-6-azaspiro[3.3]heptan-6-yl}-1,3-thiazole-4-carboxamide], the “Y220C SC150 (μM)” value was “* (* = 0 μM ≤ SC150 < 0.1 μM)”.
For `COc1ccc(C(=O)NCc2nnc(-c3cc4c(NC5CCN(C)CC5)cccc4n3CC(F)(F)F)s2)cc1` [Compound 63B, 4-methoxy-N-[(5-{4-[(1-methylpiperidin-4-yl)amino]-1-(2,2,2-trifluoroethyl)-1H-indol-2-yl}-1,3,4-thiadiazol-2-yl)methyl]benzamide], the “Y220C SC150 (μM)” value was “* (* = 0 μM ≤ SC150 < 0.1 μM)”.
In the case of `CC(C)(C)n1ccc(C(=O)NCc2nc(-c3cc4c(NC5CCn6nccc6C5)cccc4n3CC(F)(F)F)no2)c1` (stereo not shown) [Compound 332B, 1-tert-butyl-N-({3-[4-({4H,5H,6H,7H-pyrazolo[1,5-a]pyridin-5-yl}amino)-1-(2,2,2-trifluoroethyl)-1H-indol-2-yl]-1,2,4-oxadiazol-5-yl}methyl)-1H-pyrrole-3-carboxamide], the “Y220C SC150 (μM)” value is reported as “* (* = 0 μM ≤ SC150 < 0.1 μM)”.
`CN1CC[C@@H](Nc2cccc3c2cc(-c2noc(CNC(=O)c4cnn(C5CCOC5)c4)n2)n3CC(F)(F)F)[C@@H](F)C1` (stereo partly drawn) [Compound 321B, N-{[3-(4-{[(3S,4R)-3-fluoro-1-methylpiperidin-4-yl]amino}-1-(2,2,2-trifluoroethyl)-1H-indol-2-yl)-1,2,4-oxadiazol-5-yl]methyl}-1-(oxolan-3-yl)-1H-pyrazole-4-carboxamide] was tested, and the “Y220C SC150 (μM)” value was “* (* = 0 μM ≤ SC150 < 0.1 μM)”.
`CN1CC[C@@H](Nc2cccc3c2cc(-c2noc(CNC(=O)c4ccn(CCO)c4)n2)n3CC(F)(F)F)[C@@H](F)C1` [Compound 249B, N-{[3-(4-{[(3S,4R)-3-fluoro-1-methylpiperidin-4-yl]amino}-1-(2,2,2-trifluoroethyl)-1H-indol-2-yl)-1,2,4-oxadiazol-5-yl]methyl}-1-(2-hydroxyethyl)-1H-pyrrole-3-carboxamide] was tested, and the “Y220C SC150 (μM)” value was “* (* = 0 μM ≤ SC150 < 0.1 μM)”.
In the case of `CN1CC[C@@H](Nc2cccc3c2cc(-c2noc(CNC(=O)c4c[nH]c(C(C)(C)C)c4)n2)n3CC(F)(F)F)[C@@H](F)C1` [Compound 484B, 5-tert-butyl-N-{[3-(4-{1[(3S,4R)-3-fluoro-1-methylpiperidin-4-yl]amino}-1-(2,2,2-trifluoroethyl)-1H-indol-2-yl)-1,2,4-oxadiazol-5-yl]methyl}-1H-pyrrole-3-carboxamide], the “Y220C SC150 (μM)” value is reported as “* (* = 0 μM ≤ SC150 < 0.1 μM)”.
In the case of `O=C(NCc1nc(-c2cc3c(NC4CCNC4)cccc3n2CC(F)(F)F)no1)C1CC1` (racemic) [Compound 167B, (+/−)-N-[(3-{4-[(pyrrolidin-3-yl)amino]-1-(2,2,2-trifluoroethyl)-1H-indol-2-yl}-1,2,4-oxadiazol-5-yl)methyl]cyclopropanecarboxamide], the “Y220C SC150 (μM)” value is reported as “* (* = 0 μM ≤ SC150 < 0.1 μM)”.
`CN1CC[C@@H](Nc2cccc3c2cc(-c2noc(CNC(=O)c4ccncc4)n2)n3CC(F)(F)F)[C@@H](F)C1` [Compound 200B, N-{[3-(4-{[(3S,4R)-3-fluoro-1-methylpiperidin-4-yl]amino}-1-(2,2,2-trifluoroethyl)-1H-indol-2-yl)-1,2,4-oxadiazol-5-yl]methyl}pyridine-4-carboxamide] was tested, and the “Y220C SC150 (μM)” value was “* (* = 0 μM ≤ SC150 < 0.1 μM)”.
In the case of `CN1CC[C@H](Nc2cccc3c2cc(-c2nnc(CNc4cccc(S(C)(=O)=O)c4)o2)n3CC(F)(F)F)[C@H](F)C1` (racemic) [Compound 122B, (+/−)-N-[(3R,4S)-3-fluoro-1-methylpiperidin-4-yl]-2-(5-{[(3-methanesulfonylphenyl)amino]methyl}-1,3,4-oxadiazol-2-yl)-1-(2,2,2-trifluoroethyl)-1H-indol-4-amine], the “Y220C SC150 (μM)” value is reported as “** (** = 0.1 μM ≤ SC150 < 0.5 μM)”.

Same assay, conditions: concentration to increase DNA binding by […], incubated at either 27° C. or 29° C. for 60 min
For `CN(C)c1cccc(-c2cc3c(NC4CCS(=O)(=O)CC4)cccc3n2CC(F)(F)F)c1` [Compound 21A, 4-({2-[3-(dimethylamino)phenyl]-1-(2,2,2-trifluoroethyl)-1H-indol-4-yl}amino)-1λ^6-thiane-1,1-dione], the “SC150 (μM)” value was “++ (++ = 2 μM ≤ SC150 < 5 μM)”.
